Measured values reported in US7601883B2, “Mammalian sour/acid taste and CSF receptor genes, polypeptides and assays” (The Regents of the University of California, priority 2005, dated 2009).

What was measured:
[1] = tested on: taste receptor cells of the tongue; test: Tastant-induced chorda tympani nerve recordings, wild-type mice; type: in vivo, mouse; conditions: wild-type mice (WT); lingual stimulation; normalized to the response to 60 mM AceK
Description: (§1) To validate this approach as a means of uncovering TRC function, we first generated mice where T1R2-regulatory sequences were used to target DTA expression^25. T1R2 is an essential subunit of the sweet receptor heterodimer (T1R2+3), and the selective ablation of these cells should generate animals with a specific loss of sweet taste^6,9,10,17. To investigate the taste responses of the genetically modified mice, we recorded tastant-induced action potentials from nerves innervating taste receptor cells of the tongue; this physiological assay monitors the activity of the taste system at the periphery, and provides an accurate and reliable measure of taste receptor cell function. […] Next, we engineered animals where the PKD2L1 gene was used to target Cre recombinase into PKD2L1-expressing cells; appropriate expression was confirmed by performing double labeling with Cre and probes specific to PKD2L1-cells, or by crossing them to GFP reporter lines^26. Mice expressing Cre in PKD2L1 cells were crossed to conditional DTA lines, and double-positive progeny were scrutinized both for the specificity and efficiency of killing, as well as the integrity of taste buds.
(§2) Lingual stimulation and recording procedures were performed as previously described^7,9. Neural signals were amplified (10,000×) with a Grass P511 AC amplifier (Astro-Med), digitized with a Digidata 1200B A/D converter (Axon Instruments), and integrated (r.m.s. voltage) with a time constant of 0.5 s. Taste stimuli were presented at a constant flow rate of 4 ml min^−1 for 20 s intervals interspersed by 2 min rinses with artificial saliva^7,9 between presentations. All data analyses used the integrated response over a 25 s period immediately after the application of the stimulus. The mean response to 60 mM AceK was used to normalize responses to each experimental series. Tastants used for nerve recordings were: 10 mM, 60 mM acesulfameK (AceK); 10 mM, 60 mM sodium saccharin (saccharin); 300 mM sucrose; 30 mM mono potassium glutamate+1 mM inosine mono phosphate (Glu); 30 mM L alanine+1 mM inosine mono phosphate (Ala); 10 mM quinine hydrochloride (Qui); 100 μM cycloheximide (Cyx); 10 mM 6-n-propyl 2-thiouracil (PROP); 50 mM, 100 mM sodium chloride (NaCl); 10 mM, 50 mM citric acid; 10 mM, 50 mM tartaric acid; 50 mM, 500 mM acetic acid; pH 2 hydrochloric acid (HCl); 10 mM citric acid pH 2, 4 and 6.
Shown are integrated chorda tympani responses normalized to the response to 60 mM AceK; see herein for details on the ablated lines and concentrations of tastants. […] Wild type, black bars; PKD2L1-DTA, outline bars. The values are means±s.e.m. (n=5) of normalized chorda tympani responses. (c) Quantitation of acid responses of wild type (gray bars) and PKD2L1-DTA animals (outline bars). The values are means±s.e.m. (n=6).

PKD2L1-expressing TRCs = test: Tastant-induced chorda tympani nerve recordings, mice with DTA ablation of PKD2L1-expressing cells; type: in vivo, mouse; conditions: PKD2L1-DTA mice (PKD2L1-expressing cells genetically ablated); range of 5 orders magnitude of proton concentrations
Description: as §1, §2

Structure (SMILES)	neural responses to tastant (integrated chorda tympani responses) [1]	nerve responses to acid tastants (PKD2L1-expressing TRCs)
CC1=CC(=O)NS(=O)(=O)O1 [acesulfameK]	robust neural responses	–
[Cl-].[Na+] [NaCl, sodium chloride]	robust neural responses	–
CC(=O)O [acetic acid]	robust neural responses	completely abolished
C=C[C@H]1CN2CC[C@H]1C[C@H]2[C@H](O)c1ccnc2ccc(OC)cc12.Cl [quinine, quinine hydrochloride]	robust neural responses	–
O=C(O)CC(O)(CC(=O)O)C(=O)O [citric acid]	robust neural responses	completely abolished
O=C(O)C(O)C(O)C(=O)O (stereo not drawn) [tartaric acid]	–	completely abolished
O=C1NS(=O)(=O)c2ccccc21.[Na] [saccharin, sodium saccharin]	robust neural responses	–
Cl [hydrochloric acid]	robust neural responses	completely abolished
N[C@@H](CCC(=O)O)C(=O)[O-].[K+] [glutamate, mono potassium glutamate]	robust neural responses	–
